Laboratory results as given in US6734139B1, “N-aryl-uracile-based herbicides” (priority 1999, dated 2004).
Several values for one entry are separate records, joined by “and”; a condition that tells them apart may be missing. Equal values may be shown once. Read-outs that look alike come from different tables or passages of the source.

What was measured:
Type in all cases: in vivo
Solanum = assay: Post-emergence test (herbicidal action, Colby): Solanum; details: single active compound at 15 g of a.i./ha
Source text: (§1) The expected action for a given combination of two herbicides can be calculated as follows (cf. COLBY, S. R.: “Calculating synergistic and antagonistic responses of herbicide combinations”, Weeds 15, Pages 20-22, 1967):
(§2) If the actual damage exceeds the calculated value, the combination has a superadditive effect, that is to say a synergistic effect.
(§3) To produce a suitable preparation of active compound, 1 part by weight of active compound is mixed with the stated amount of solvent, the stated amount of emulsifier is added and the concentrate is diluted with water to the desired concentration. Formulated products are dissolved in water and then diluted with water to the desired concentration.
(§4) The solutions of the other mixing components (active compounds or safeners) are prepared analogously. The separately prepared solutions of the various mixing components are then combined and, if appropriate, additional substances (formulation auxiliaries, additives, etc.) are added and, if appropriate, water is added to prepare the desired dilution.
(§5) After three weeks, the degree of damage to the plants is rated in % damage in comparison to the development of the untreated control. The figures denote
(§6) 0%=no effect/no damage (like untreated control)

Veronica = assay: Post-emergence test (herbicidal action, Colby): Veronica; details: single active compound at 8 g of a.i./ha
Source text: as §1, §2, §3, §4, §5, §6

Datura = assay: Pre-emergence test (herbicidal action, Colby): Datura
weeds = assay: Pre-emergence test (herbicidal action against weeds, Colby)
Source text: as §1, §2
The theoretically expected activity for a given combination of three herbicides can likewise be found in the literature mentioned above.
(§7) Solvent: 2 to 3 parts by weight of acetone or N,N-dimethyl-formamide
(§8) Emulsifier: 1 part by weight of alkylaryl polyglycol ether
as §3, §4
(§9) Seeds of the test plants are sown in standard soil. After 24 hours, the soil is sprayed with the preparation of active compound such that the particular amount of active compound desired in each case is applied per unit area. The concentration of active compound in the spray liquor is chosen such that the particular amount of active compound desired in each case is applied in 500 litres of water per hectare. The containers with the test plants are kept in a greenhouse at controlled temperature and controlled illumination until evaluation.
as §5, §6

Digitaria = assay: Pre-emergence test (herbicidal action, Colby): Digitaria
Abutilon = assay: Pre-emergence test (herbicidal action, Colby): Abutilon
Alopecurus = assay: Pre-emergence test (herbicidal action, Colby): Alopecurus
Polygonum = assay: Pre-emergence test (herbicidal action, Colby): Polygonum
Galium = assay: Post-emergence test (herbicidal action, Colby): Galium; details: 125 g of a.i./ha
Matricaria = assay: Pre-emergence test (herbicidal action, Colby): Matricaria
Cyperus = assay: Pre-emergence test (herbicidal action, Colby): Cyperus
Ipomoea = assay: Pre-emergence test (herbicidal action, Colby): Ipomoea; details: 60 g of a.i./ha
Stellaria = assay: Pre-emergence test (herbicidal action, Colby): Stellaria
Setaria = assay: Pre-emergence test (herbicidal action, Colby): Setaria; details: 250 g of a.i./ha
Echinochloa = assay: Pre-emergence test (herbicidal action, Colby): Echinochloa; details: 250 g of a.i./ha
maize = assay: Pre-emergence test in maize (crop plant compatibility)
Method: as §7, §8, §3, §4, §9, §6

Winter barley = assay: Post-emergence test in barley and wheat: winter barley; details: for damage, Winter barley (21 days): 0.1% Renex-36
Method: as §3, §4, §6

Winter wheat = assay: Post-emergence test in barley and wheat: winter wheat
Method: as §3, §4, §5, §6

Durum wheat = assay: Post-emergence test in barley and wheat: durum wheat
Method: as §3, §4, §5, §6

Summer wheat = assay: Post-emergence test in barley and wheat: summer wheat; details: for damage, Summer wheat (5 days) / damage, Summer wheat (21 days) / damage, Summer wheat (22 days): 0.1% Renex-36
Method: as §3, §4, §6

## COCc1cnc(C2=NC(C)(C(C)C)C(=O)N2)c(C(=O)O)c1 (stereo not drawn) [imazamox, 2-(4,5-dihydro-4-methyl-4-isopropyl-5-oxo-1H-imidazol-2-yl)-5-methoxymethyl-pyridine-3-carboxylic acid]
Solanum
  damage, Solanum: 0%
Veronica
  damage, Veronica: 0%

## CS(=O)(=O)c1cc(C(F)(F)F)ccc1C(=O)c1cnoc1C1CC1 [isoxaflutole, (5-cyclopropyl-isoxazol-4-yl)-(2-methylsulphonyl-4-trifluoromethyl-phenyl)-methanone]
Datura; 60 g of a.i./ha
  Datura: 90%
weeds; Table A26, 30 g of a.i./ha
  Avena (pre-emergence test): 30
  Cassia (pre-emergence test): 70
  Digitaria (pre-emergence test): 80
  Echinochloa (pre-emergence test): 30
  Lolium (pre-emergence test): 30
  Matricaria (pre-emergence test): 20
  Setaria (pre-emergence test): 30
weeds; Table A26, 60 g of a.i./ha
  Echinochloa (pre-emergence test): 40
  Lolium (pre-emergence test): 50
  Matricaria (pre-emergence test): 40
  Setaria (pre-emergence test): 30
Digitaria; 30 g of a.i./ha
  Digitaria: 90%
Abutilon; 30 g of a.i./ha, read-out: Abutilon
  pest or weed control at 30 g/ha: 80%
Alopecurus; 60 g of a.i./ha
  Alopecurus: 40%
Polygonum; 30 g of a.i./ha
  Polygonum: 0%

## CC(C)N.O=C(O)CNCP(=O)(O)O [glyphosate-isopropylammonium, N-phosphonomethyl-glycine (isopropylammonium salt)]
Galium
  Galium: 0%

## CS(=O)(=O)c1ccc(C(=O)C2C(=O)CCCC2=O)c(Cl)c1 [sulcotrione, 2-(2-chloro-4-methylsulphonyl-benzoyl)-cyclohexane-1,3-dione]
Matricaria; 30 g of a.i./ha
  Matricaria: 40%
Datura; 30 g of a.i./ha
  Datura: 50%
Cyperus; 30 g of a.i./ha
  Cyperus: 90%
Ipomoea
  Ipomoea: 80%
Stellaria; 60 g of a.i./ha
  Stellaria: 80%
Abutilon; Abutilon, read-out: Abutilon
  pest or weed control at 30 g/ha: 70%
  pest or weed control at 60 g/ha: 80%

## CCOCN(C(=O)CCl)c1c(C)cccc1CC [acetochlor, 2-chloro-N-(ethoxymethyl)-N-(2-ethyl-6-methyl-phenyl)-acetamide]
Matricaria; 125 g of a.i./ha
  Matricaria: 90%
Setaria
  Setaria: 80%
Cyperus; 125 g of a.i./ha
  Cyperus: 60%
Cyperus; 250 g of a.i./ha
  Cyperus: 60%
weeds; Table A20, 125 g of a.i./ha
  Chenopodium (pre-emergence test): 30
  Datura (pre-emergence test): 30
  Galium (pre-emergence test): 0
  Ipomoea (pre-emergence test): 0
weeds; Table A20, 250 g of a.i./ha
  Datura (pre-emergence test): 50
  Galium (pre-emergence test): 20
  Ipomoea (pre-emergence test): 20
  Lolium (pre-emergence test): 90
Digitaria; 125 g of a.i./ha
  Digitaria: 80%
Stellaria; 125 g of a.i./ha
  Stellaria: 80%
Echinochloa
  Echinochloa: 80%
Abutilon; 125 g of a.i./ha
  pest or weed control at 125 g/ha: 0%
Abutilon; 250 g of a.i./ha
  pest or weed control at 250 g/ha: 40%
Alopecurus; 125 g of a.i./ha
  Alopecurus: 30%
Polygonum; 125 g of a.i./ha
  Polygonum: 30%
Polygonum; 250 g of a.i./ha
  Polygonum: 30%

## CCNc1nc(Cl)nc(NC(C)C)n1 [atrazine, 6-chloro-4-ethylamino-2-isopropylamino-1,3,5-triazine]
weeds; Table A25, 500 g of a.i./ha
  Avena (pre-emergence test): 80
  Bromus (pre-emergence test): 70
  Cyperus (pre-emergence test): 50
  Lolium (pre-emergence test): 90

## CCCN(CCC)c1c([N+](=O)[O-])cc(C(F)(F)F)cc1[N+](=O)[O-] [trifluralin, 1-amino-2,6-dinitro-N,N-di-propyl-4-trifluoromethyl-benzene]
weeds; Table A24, 250 g of a.i./ha
  Cassia (pre-emergence test): 80
  Lolium (pre-emergence test): 95
  Setaria (pre-emergence test): 95
weeds; Table A24, 500 g of a.i./ha
  Echinochloa (pre-emergence test): 95
  Veronica (pre-emergence test): 95

## CCS(=O)(=O)N(C(=O)c1cccs1)c1cc(-n2c(=O)cc(C(F)(F)F)n(N)c2=O)c(F)cc1C#N [I-5, N-[5-(3-amino-2,6-dioxo-4-trifluoromethyl-3,6-dihydro-1(2H)-pyrimidinyl)-2-cyano-4-fluoro-phenyl]-N-(2-thienyl-carbonyl)-1-ethanesulphonamide]
maize; Table A32, 60 g of a.i./ha
  Maize (7 days): 20%
  Maize (12 days): 30%
  Maize (21 days): 18%
maize; Table A32, 90 g of a.i./ha
  Maize (7 days): 60%
  Maize (12 days): 70%
  Maize (21 days): 64%

## COc1cc(OC)nc(NC(=O)NS(=O)(=O)c2cc(NC=O)ccc2C(=O)N(C)C)n1 [foramsulfuron, 2-[[[[(4,6-dimethoxy-2-pyrimidinyl)-amino]-carbonyl]-amino]-sulphonyl]-4-formylamino-N,N-dimethyl-benzamide]
weeds; Table A27, 15 g of a.i./ha
  Cassia (pre-emergence test): 50
weeds; Table A27, 30 g of a.i./ha
  Abutilon (pre-emergence test): 50
  Polygonum (pre-emergence test): 40

## CCS(=O)(=O)Nc1cc(-n2c(=O)cc(C(F)(F)F)n(C)c2=O)c(F)cc1C(N)=S [I-6, 2-(ethylsulphonylamino)-5-fluoro-4-[3-methyl-2,6-dioxo-4-trifluoromethyl-3,6-dihydro-1(2H)-pyrimidinyl]-benzenecarbothioamide]
Winter barley; 4 g of a.i./ha
  Winter barley (5 days): 30%
  Winter barley (21 days): 50%
  Winter barley (22 days): 10%
Winter barley; 8 g of a.i./ha
  Winter barley (5 days): 40%
  Winter barley (21 days): 50%
  Winter barley (22 days): 20%
Winter barley; 15 g of a.i./ha
  Winter barley (5 days): 60% and 50%
  damage, Winter barley (21 days): 20%
Winter barley; 30 g of a.i./ha
  Winter barley (5 days): 50%
  Winter barley (21 days): 20%
  damage, Winter barley (21 days): 30%
Winter wheat; 4 g of a.i./ha
  Winter wheat (5 days): 20%
  Winter wheat (20 days): 10%
  Winter wheat (22 days): 20%
Winter wheat; 8 g of a.i./ha
  Winter wheat (5 days): 30%
  Winter wheat (20 days): 10%
  Winter wheat (22 days): 20%
Winter wheat; 15 g of a.i./ha
  Winter wheat (5 days): 30%
  Winter wheat (20 days): 20%
Winter wheat; 15 g of a.i./ha, 21 days, 0.1% Renex-36
  damage, Winter wheat (21 days): 10%
Durum wheat; 15 g of a.i./ha
  Durum wheat (5 days): 20%
  Durum wheat (21 days): 20%
Durum wheat; 15 g of a.i./ha, 0.1% Renex-36
  damage, Durum wheat (5 days): 20%
Durum wheat; 30 g of a.i./ha
  Durum wheat (5 days): 30%
  Durum wheat (21 days): 20%
Durum wheat; 30 g of a.i./ha, 0.1% Renex-36
  damage, Durum wheat (5 days): 30%
Durum wheat; 30 g of a.i./ha, 22 days, 0.1% Renex-36
  damage, Durum wheat (22 days): 20%
maize; Table A30, 60 g of a.i./ha
  Maize (7 days): 30%
maize; Table A30, 90 g of a.i./ha
  Maize (7 days): 60%
  Maize (12 days): 60%
  Maize (21 days): 30%
Summer wheat; 15 g of a.i./ha
  Summer wheat (5 days): 40%
  Summer wheat (21 days): 30%
  damage, Summer wheat (5 days): 50%
  damage, Summer wheat (21 days): 20%
  damage, Summer wheat (22 days): 20%
Summer wheat; 30 g of a.i./ha
  Summer wheat (5 days): 50%
  Summer wheat (21 days): 40%
  damage, Summer wheat (5 days): 60%
  damage, Summer wheat (21 days): 30%
  damage, Summer wheat (22 days): 30%
